{"source": "the supplement of paper PMC10307832", "test_in_all_cases": "relative viability (nuclei count vs DMSO), 5 days (fraction); higher = more cells survive", "key": {"[1]": {"compound": "CC1=CC=C(C=C1)C(=O)CN2C3=C(CCCC3)SC2=N [Pifithrin_alpha] + CC(C)C[C@H](NC(=O)[C@H](Cc1ccccc1)NC(=O)c1cnccn1)B(O)O [Bortezomib] (partner 0.002 µM)", "outline": "(§1)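 The day after seeding in 1536-well plates, lung cancer cell lines were treated by pin tool with a single drug, or with a fixed anchor-drug dose together with five library-drug doses (not always all listed) in √10 steps. After 5 days, a combined fix-and-stain solution (final 0.05% Triton X-100, 1% formaldehyde, 1 ug/ml Hoechst) was added. Nuclei counted on 4× images gave relative viability as treated counts over vehicle counts, reported as the median of duplicate plates.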"}, "[2]": {"compound": "CC1=CC=C(C=C1)C(=O)CN2C3=C(CCCC3)SC2=N [Pifithrin_alpha] + CCNC(=O)c1noc(-c2cc(C(C)C)c(O)cc2O)c1-c1ccc(CN2CCOCC2)cc1 [Luminespib] (partner 0.01 µM)", "outline": "as §1"}, "[3]": {"compound": "CC1=CC=C(C=C1)C(=O)CN2C3=C(CCCC3)SC2=N [Pifithrin_alpha] + CS(=O)(=O)N1CCN(Cc2cc3nc(-c4cccc5[nH]ncc45)nc(N4CCOCC4)c3s2)CC1 [Pictilisib] (partner 1 µM)", "outline": "as §1"}, "[4]": {"compound": "Nc1nc(Nc2ccc3c(c2)CC[C@@H](N2CCCC2)CC3)nn1-c1cc2c(nn1)-c1ccccc1CCC2 [Bemcentinib] + CC(=O)Nc1cccc(-n2c(=O)n(C3CC3)c(=O)c3c(Nc4ccc(I)cc4F)n(C)c(=O)c(C)c32)c1 [Trametinib] (partner 0.02 µM)", "outline": "as §1"}}}
{"cell line": "BEN", "values": [{"measurement": "relative viability", "setting": "[1]; first compound 1 µM", "value": 0.47}, {"measurement": "relative viability", "setting": "[1]; first compound 3.162 µM", "value": 0.884}, {"measurement": "relative viability", "setting": "[1]; first compound 10 µM", "value": 0.914}, {"measurement": "relative viability", "setting": "[1]; first compound 31.62 µM", "value": 0.728}, {"measurement": "relative viability", "setting": "[1]; first compound 100 µM", "value": 1.04}, {"measurement": "relative viability", "setting": "[2]; first compound 1 µM", "value": 0.191}, {"measurement": "relative viability", "setting": "[2]; first compound 3.162 µM", "value": 0.285}, {"measurement": "relative viability", "setting": "[2]; first compound 10 µM", "value": 0.401}, {"measurement": "relative viability", "setting": "[2]; first compound 31.62 µM", "value": 0.493}, {"measurement": "relative viability", "setting": "[2]; first compound 100 µM", "value": 0.398}, {"measurement": "relative viability", "setting": "[3]; first compound 1 µM", "value": 0.445}, {"measurement": "relative viability", "setting": "[3]; first compound 3.162 µM", "value": 0.576}, {"measurement": "relative viability", "setting": "[3]; first compound 10 µM", "value": 0.64}, {"measurement": "relative viability", "setting": "[3]; first compound 31.62 µM", "value": 0.618}, {"measurement": "relative viability", "setting": "[3]; first compound 100 µM", "value": 0.543}, {"measurement": "relative viability", "setting": "[4]; first compound 0.04 µM", "value": 1.01}, {"measurement": "relative viability", "setting": "[4]; first compound 0.1265 µM", "value": 1.18}, {"measurement": "relative viability", "setting": "[4]; first compound 0.4 µM", "value": 1.21}, {"measurement": "relative viability", "setting": "[4]; first compound 1.265 µM", "value": 1.04}, {"measurement": "relative viability", "setting": "[4]; first compound 4 µM", "value": 1.03}]}
{"cell line": "NCI-H1755", "values": [{"measurement": "relative viability", "setting": "[1]; first compound 1 µM", "value": 0.894}, {"measurement": "relative viability", "setting": "[1]; first compound 3.162 µM", "value": 0.907}, {"measurement": "relative viability", "setting": "[1]; first compound 10 µM", "value": 0.866}, {"measurement": "relative viability", "setting": "[1]; first compound 31.62 µM", "value": 0.862}, {"measurement": "relative viability", "setting": "[1]; first compound 100 µM", "value": 0.971}, {"measurement": "relative viability", "setting": "[2]; first compound 1 µM", "value": 0.5}, {"measurement": "relative viability", "setting": "[2]; first compound 3.162 µM", "value": 0.601}, {"measurement": "relative viability", "setting": "[2]; first compound 10 µM", "value": 0.562}, {"measurement": "relative viability", "setting": "[2]; first compound 31.62 µM", "value": 0.315}, {"measurement": "relative viability", "setting": "[2]; first compound 100 µM", "value": 0.272}, {"measurement": "relative viability", "setting": "[3]; first compound 1 µM", "value": 0.296}, {"measurement": "relative viability", "setting": "[3]; first compound 3.162 µM", "value": 0.451}, {"measurement": "relative viability", "setting": "[3]; first compound 10 µM", "value": 0.395}, {"measurement": "relative viability", "setting": "[3]; first compound 31.62 µM", "value": 0.307}, {"measurement": "relative viability", "setting": "[3]; first compound 100 µM", "value": 0.39}, {"measurement": "relative viability", "setting": "[4]; first compound 0.04 µM", "value": 0.765}, {"measurement": "relative viability", "setting": "[4]; first compound 0.1265 µM", "value": 0.817}, {"measurement": "relative viability", "setting": "[4]; first compound 0.4 µM", "value": 0.818}, {"measurement": "relative viability", "setting": "[4]; first compound 1.265 µM", "value": 0.768}, {"measurement": "relative viability", "setting": "[4]; first compound 4 µM", "value": 0.813}]}
{"cell line": "LU99A", "values": [{"measurement": "relative viability", "setting": "[1]; first compound 1 µM", "value": 1.09}, {"measurement": "relative viability", "setting": "[1]; first compound 3.162 µM", "value": 1.24}, {"measurement": "relative viability", "setting": "[1]; first compound 10 µM", "value": 1.19}, {"measurement": "relative viability", "setting": "[1]; first compound 100 µM", "value": 1.24}, {"measurement": "relative viability", "setting": "[2]; first compound 1 µM", "value": 0.304}, {"measurement": "relative viability", "setting": "[2]; first compound 3.162 µM", "value": 0.302}, {"measurement": "relative viability", "setting": "[2]; first compound 10 µM", "value": 0.244}, {"measurement": "relative viability", "setting": "[2]; first compound 31.62 µM", "value": 0.206}, {"measurement": "relative viability", "setting": "[2]; first compound 100 µM", "value": 0.281}, {"measurement": "relative viability", "setting": "[3]; first compound 1 µM", "value": 0.35}, {"measurement": "relative viability", "setting": "[3]; first compound 3.162 µM", "value": 0.311}, {"measurement": "relative viability", "setting": "[3]; first compound 10 µM", "value": 0.325}, {"measurement": "relative viability", "setting": "[3]; first compound 100 µM", "value": 0.305}, {"measurement": "relative viability", "setting": "[4]; first compound 0.04 µM", "value": 0.516}, {"measurement": "relative viability", "setting": "[4]; first compound 0.1265 µM", "value": 0.641}, {"measurement": "relative viability", "setting": "[4]; first compound 0.4 µM", "value": 0.55}, {"measurement": "relative viability", "setting": "[4]; first compound 1.265 µM", "value": 0.596}, {"measurement": "relative viability", "setting": "[4]; first compound 4 µM", "value": 0.51}]}
{"cell line": "NCI-H460", "values": [{"measurement": "relative viability", "setting": "[1]; first compound 1 µM", "value": 1.51}, {"measurement": "relative viability", "setting": "[1]; first compound 3.162 µM", "value": 1.14}, {"measurement": "relative viability", "setting": "[1]; first compound 10 µM", "value": 0.661}, {"measurement": "relative viability", "setting": "[1]; first compound 100 µM", "value": 0.438}, {"measurement": "relative viability", "setting": "[2]; first compound 1 µM", "value": 0.0365}, {"measurement": "relative viability", "setting": "[2]; first compound 3.162 µM", "value": 0.032}, {"measurement": "relative viability", "setting": "[2]; first compound 10 µM", "value": 0.0293}, {"measurement": "relative viability", "setting": "[2]; first compound 31.62 µM", "value": 0.0251}, {"measurement": "relative viability", "setting": "[2]; first compound 100 µM", "value": 0.0317}, {"measurement": "relative viability", "setting": "[3]; first compound 1 µM", "value": 0.317}, {"measurement": "relative viability", "setting": "[3]; first compound 3.162 µM", "value": 0.353}, {"measurement": "relative viability", "setting": "[3]; first compound 10 µM", "value": 0.31}, {"measurement": "relative viability", "setting": "[3]; first compound 100 µM", "value": 0.371}, {"measurement": "relative viability", "setting": "[4]; first compound 0.04 µM", "value": 0.137}, {"measurement": "relative viability", "setting": "[4]; first compound 0.1265 µM", "value": 0.185}, {"measurement": "relative viability", "setting": "[4]; first compound 0.4 µM", "value": 0.147}, {"measurement": "relative viability", "setting": "[4]; first compound 1.265 µM", "value": 0.158}, {"measurement": "relative viability", "setting": "[4]; first compound 4 µM", "value": 0.259}]}
{"cell line": "SK-LU-1", "values": [{"measurement": "relative viability", "setting": "[1]; first compound 1 µM", "value": 0.891}, {"measurement": "relative viability", "setting": "[1]; first compound 3.162 µM", "value": 1.4}, {"measurement": "relative viability", "setting": "[1]; first compound 10 µM", "value": 1.41}, {"measurement": "relative viability", "setting": "[1]; first compound 31.62 µM", "value": 0.574}, {"measurement": "relative viability", "setting": "[1]; first compound 100 µM", "value": 1.39}, {"measurement": "relative viability", "setting": "[2]; first compound 1 µM", "value": 0.216}, {"measurement": "relative viability", "setting": "[2]; first compound 3.162 µM", "value": 0.188}, {"measurement": "relative viability", "setting": "[2]; first compound 10 µM", "value": 0.213}, {"measurement": "relative viability", "setting": "[2]; first compound 100 µM", "value": 0.165}, {"measurement": "relative viability", "setting": "[3]; first compound 1 µM", "value": 0.523}, {"measurement": "relative viability", "setting": "[3]; first compound 3.162 µM", "value": 0.526}, {"measurement": "relative viability", "setting": "[3]; first compound 10 µM", "value": 0.615}, {"measurement": "relative viability", "setting": "[3]; first compound 31.62 µM", "value": 0.451}, {"measurement": "relative viability", "setting": "[3]; first compound 100 µM", "value": 0.45}, {"measurement": "relative viability", "setting": "[4]; first compound 0.04 µM", "value": 0.463}, {"measurement": "relative viability", "setting": "[4]; first compound 0.1265 µM", "value": 0.514}, {"measurement": "relative viability", "setting": "[4]; first compound 0.4 µM", "value": 0.493}, {"measurement": "relative viability", "setting": "[4]; first compound 1.265 µM", "value": 0.547}, {"measurement": "relative viability", "setting": "[4]; first compound 4 µM", "value": 0.531}]}
{"cell line": "HARA", "values": [{"measurement": "relative viability", "setting": "[1]; first compound 1 µM", "value": 1.25}, {"measurement": "relative viability", "setting": "[1]; first compound 3.162 µM", "value": 1.13}, {"measurement": "relative viability", "setting": "[1]; first compound 10 µM", "value": 1.2}, {"measurement": "relative viability", "setting": "[1]; first compound 31.62 µM", "value": 0.878}, {"measurement": "relative viability", "setting": "[1]; first compound 100 µM", "value": 1.26}, {"measurement": "relative viability", "setting": "[2]; first compound 3.162 µM", "value": 0.899}, {"measurement": "relative viability", "setting": "[2]; first compound 10 µM", "value": 0.792}, {"measurement": "relative viability", "setting": "[2]; first compound 100 µM", "value": 0.481}, {"measurement": "relative viability", "setting": "[3]; first compound 1 µM", "value": 0.335}, {"measurement": "relative viability", "setting": "[3]; first compound 3.162 µM", "value": 0.275}, {"measurement": "relative viability", "setting": "[3]; first compound 10 µM", "value": 0.4}, {"measurement": "relative viability", "setting": "[3]; first compound 31.62 µM", "value": 0.234}, {"measurement": "relative viability", "setting": "[3]; first compound 100 µM", "value": 0.251}, {"measurement": "relative viability", "setting": "[4]; first compound 0.04 µM", "value": 0.769}, {"measurement": "relative viability", "setting": "[4]; first compound 0.1265 µM", "value": 0.83}, {"measurement": "relative viability", "setting": "[4]; first compound 0.4 µM", "value": 0.69}, {"measurement": "relative viability", "setting": "[4]; first compound 1.265 µM", "value": 0.67}, {"measurement": "relative viability", "setting": "[4]; first compound 4 µM", "value": 0.96}]}
